Results reported in patent publication US20250059231A1, “Protease inhibitors” (priority 2021, published 2025).
Where a SMILES comes first, the peptide text is derived from it. [ ]: non-standard residue; d: D form. The star is where a group is joined. Palmitoyl = CCCCCCCCCCCCCCCC(=O)*; Myristoyl = CCCCCCCCCCCCCC(=O)*; Lauroyl = CCCCCCCCCCCC(=O)*; hLys = NCCCCC[C@H](N)C(=O)O; β3hK = NCCCC[C@H](N)CC(=O)O; N(Me)OMe = CON(C)*

molecular target: T1, DENV protease (Dengue virus type 2, UniProt P29990); assay: biochemical; conditions: at 1 μM; read-out: inhibition of DENV
T1 construct: The virus-encoded dengue protease comprises the amino-terminal 180 amino acids of NS3 (NS3pro) of the polyprotein
T1 sequence (P29990 1398-1437): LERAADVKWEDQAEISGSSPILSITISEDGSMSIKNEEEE
T1 sequence (P29990 1476-1653): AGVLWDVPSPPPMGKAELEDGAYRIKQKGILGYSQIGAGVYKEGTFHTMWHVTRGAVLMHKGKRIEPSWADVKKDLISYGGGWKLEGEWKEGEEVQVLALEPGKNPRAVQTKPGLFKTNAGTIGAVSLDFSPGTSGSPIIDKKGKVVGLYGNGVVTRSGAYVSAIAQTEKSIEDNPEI
Experimental: Dilutions were made starting from 10 mM stock solutions in DMSO and final concentrations were measured in triplicates. The inhibitors were preincubated for 15 min with DENV protease (100 nM) in the assay buffer (50 mM Tris-HCl pH 9.0, ethylene glycol (10% v/v), and 0.0016% Brij 58). The enzymatic reaction was initiated by the addition of the FRET substrate (final concentration 50 μM) to obtain a final assay volume of 100 μL per well. The enzymatic activity was monitored for 15 min and determined as a slope of relative fluorescence units per second (RFU/s) for each concentration. The mean of the triplicates were plotted against the corresponding concentration in CDDVault to determine the IC50-values. Analogous procedures were used to determine the inhibitory potency on WNV (Kühl et al., J. Med. Chem. 2020, 63 (15): 8179-8197) and ZIKA protease (Nitsche et al., ACS Med. Chem. Lett. 2019 Feb. 14; 10 (2): 168-174). For selectivity screening of active candidates, similar biochemical assays with human serine proteases trypsin (Weigel et al., J. Med. Chem. 2015, 58 (19), 7719-7733.) and/or thrombin (Nitsche et al., J. Med. Chem. 2013, 56 (21), 8389-8403) were used.

| inhibition at 1 µM [%] | SMILES |
| --- | --- |
| ≥ 20 | CCCCCCCCCCCCCCCC(=O)N[C@@H](CCCCN)C(=O)N[C@@H](C)C(=O)N[C@@H](C)C(=O)N[C@@H](CCc1c[nH]cn1)C(N)=O [compound 172] |
| ≥ 20 | CCCCCCCCCCCCCCCC(=O)N[C@@H](CCCCN)C(=O)N[C@@H](C)C(=O)N[C@@H](C)C(=O)N[C@H](CCc1c[nH]cn1)C(N)=O [compound 173] |

| SMILES | inhibition at 1 µM [%] |
| --- | --- |
| CCCCCCCCCCCCCCCC(=O)N[C@@H](C)C(=O)N[C@@H](CCCCN)C(=O)N[C@@H](C)C(=O)N[C@H](C)C(N)=O [compound 148] (Palmitoyl-AKA[dA]-NH2) | ≥ 20 |

same assay, conditions: at 50 μM; read-out: inhibition of DENV

| SMILES | inhibition at 50 µM [%] |
| --- | --- |
| CCCCCCCCCCCCCCCCNC(=O)[C@H](CCCCN)NC(=O)[C@H](C)NC(=O)[C@@H](N)CCCCN [compound 98] | ≥ 25 |
| CCCCCCCCCCCCCCCC(=O)N[C@@H](CCCCN)C(=O)N[C@@H](CCCCN)C(N)=O [compound 110] | ≥ 25 |
| CCCCCCCCCCCCCCCC(=O)N[C@@H](CCCCN)C(=O)N[C@@H](CCCNC(=N)N)C(N)=O [compound 111] (Palmitoyl-Lys-Arg-NH2) | ≥ 25 |
| CCCCCCCCCCCCCCCC(=O)N[C@@H](CCCNC(=N)N)C(=O)N[C@@H](CCCNC(=N)N)C(N)=O [compound 112] (Palmitoyl-Arg-Arg-NH2) | ≥ 25 |
| CCCCCCCCCCCCCCCC(=O)N[C@@H](CCCCN)CC(=O)N1CCC[C@H]1C(=O)N[C@@H](C)C(=O)N[C@H](CCCCN)C(N)=O [compound 119] (Palmitoyl-[β3hK]PA[dK]-NH2) | ≥ 25 |
| CCCCCCCCCCCCCCCC(=O)N[C@@H](CCCCN)CCN1CCC[C@H]1CC(=O)N[C@@H](C)C(=O)N[C@@H](Cc1c[nH]c2ccccc12)C(N)=O [compound 120] | ≥ 25 |
| CCCCCCCCCCCCCCCC(=O)N[C@@H](CCCCCN)C(=O)N1CCC[C@H]1C(=O)N[C@@H](CCCCN)C(N)=O [compound 121] (Palmitoyl-[hLys]-Pro-Lys-NH2) | ≥ 25 |
| CCCCCCCCCCCCCCCC(=O)N[C@@H](CCCCN)C(=O)N1CCC[C@H]1C(=O)N[C@@H](C)C(=O)N[C@@H](CCCCN)C(=O)O [compound 126] (Palmitoyl-KPAK-OH) | ≥ 25 |
| CCCCCCCCCCCCCCCC(=O)N[C@@H](CCCCN)C(=O)N1CCC[C@H]1C(=O)N[C@@H](C)C(=O)N[C@@H](CCCCN)C(=O)NS(=O)(=O)C1CC1 [compound 127] | ≥ 25 |
| CCCCCCCCCCCCCCCC(=O)N[C@@H](CCCCN)C(=O)N1CCC[C@H]1C(=O)N[C@@H](C)C(=O)N[C@@H](CCCCN)C(=O)c1ccccc1 [compound 128] | ≥ 25 |
| CCCCCCCCCCCCCCCC(=O)N[C@@H](CCCCN)C(=O)N1CCC[C@H]1C(=O)N[C@@H](C)C(=O)N[C@H](C(N)=O)c1ccc(OCc2ccccc2)cc1 [compound 130] | ≥ 25 |
| CCCCCCCCCCCCCCCC(=O)N[C@@H](CCCCN)C(=O)N[C@@H](C)C(=O)N1CCC[C@H]1C(=O)N[C@@H](CCCCN)C(N)=O [compound 133] (Palmitoyl-KAPK-NH2) | ≥ 25 |
| CCCCCCCCCCCCCCCC(=O)N[C@@H](CCCCN)C(=O)N[C@@H](C)C(=O)N[C@@H](C)C(=O)N[C@H](CCCCN)C(=O)O [compound 134] (Palmitoyl-KAA[dK]-OH) | ≥ 25 |
| CCCCCCCCCCCCCCCC(=O)N[C@@H](CCCCN)C(=O)N[C@@H](C)C(=O)N[C@@H](C)C(=O)N[C@H](CCCCN)C(=O)NS(=O)(=O)C1CC1 [compound 135] | ≥ 25 |
| CCCCCCCCCCCCCCCC(=O)N[C@@H](CCCCN)C(=O)N[C@@H](C)C(=O)N[C@@H](C)C(=O)N[C@@H](C(N)=O)c1ccc(OCc2ccccc2)cc1 [compound 138] | ≥ 25 |
| CCCCCCCCCCCCCCCC(=O)N[C@@H](CCCCN)C(=O)N[C@@H](C)C(=O)N[C@@H](C)C(=O)N[C@H](C(N)=O)c1ccc(OCc2ccccc2)cc1 [compound 139] | ≥ 25 |
| CCCCCCCCCCCCCCCC(=O)N[C@@H](CCCCN)C(=O)N[C@H](C)C(=O)N[C@@H](CCCCN)C(N)=O [compound 146] (Palmitoyl-Lys-[dA]-Lys-NH2) | ≥ 25 |
| CCCCCCCCCCCCCCCC(=O)N[C@@H](CCCCN)C(=O)N[C@@H](C)C(=O)N[C@@H](C)C(=O)N[C@H](C)C(N)=O [compound 147] (Palmitoyl-KAA[dA]-NH2) | ≥ 25 |

| SMILES | inhibition at 50 µM [%] |
| --- | --- |
| CCCCCCCCCCCCCCCC(=O)N[C@@H](C)C(=O)N[C@@H](CCCCN)C(=O)N[C@@H](C)C(=O)N[C@H](C)C(N)=O [compound 148] (Palmitoyl-AKA[dA]-NH2) | ≥ 25 |
| CCCCCCCCCCCCCCCC(=O)N[C@@H](C)C(=O)N[C@@H](C)C(=O)N[C@@H](CCCCN)C(=O)N[C@H](C)C(N)=O [compound 149] (Palmitoyl-AAK[dA]-NH2) | ≥ 25 |
| CCCCCCCCCCCCCCCC(=O)N[C@@H](C)C(=O)N[C@@H](C)C(=O)N[C@@H](C)C(=O)N[C@H](CCCCN)C(N)=O [compound 150] (Palmitoyl-AAA[dK]-NH2) | ≥ 25 |
| CCCCCCCCCCCCCC(=O)N[C@@H](CCCCN)C(=O)N[C@@H](C)C(=O)N[C@@H](C)C(=O)N[C@H](CCCCN)C(N)=O [compound 151] (Myristoyl-KAA[dK]-NH2) | ≥ 25 |
| CCCCCCCCCCCC(=O)N[C@@H](C)C(=O)N[C@@H](CCCCN)C(=O)N[C@@H](C)C(=O)N[C@H](C)C(N)=O [compound 152] (Lauroyl-AKA[dA]-NH2) | ≥ 25 |
| CCCCCCCCCCCCCCCC(=O)N[C@@H](CCCCN)C(=O)N[C@H](C)C(=O)N[C@@H](C)C(=O)N[C@@H](CCCCN)C(N)=O [compound 158] (Palmitoyl-K[dA]AK-NH2) | ≥ 25 |
| CCCCCCCCCCCCCCCC(=O)N[C@H](CCCCN)C(=O)N[C@@H](C)C(=O)N[C@@H](CCCCN)C(N)=O [compound 159] (Palmitoyl-[dK]-Ala-Lys-NH2) | ≥ 25 |
| CCCCCCCCCCCCCCCC(=O)N[C@@H](CCCCN)C(=O)N[C@@H](C)C(=O)N[C@H](CCCCN)C(N)=O [compound 160] (Palmitoyl-Lys-Ala-[dK]-NH2) | ≥ 25 |
| CCCCCCCCCCCCCCCC(=O)N[C@@H](CCCNC(=N)N)C(=O)N[C@@H](CCCCN)C(N)=O [compound 161] (Palmitoyl-Arg-Lys-NH2) | ≥ 25 |
| CCCCCCCCCCCCCCCC(=O)N[C@@H](CCCCN)C(=O)N[C@@H](Cc1c[nH]cn1)C(N)=O [compound 162] | ≥ 25 |
| CCCCCCCCCCCCCCCC(=O)N[C@@H](CCCCN)C(=O)N1CCC[C@H]1C(=O)N[C@@H](C)C(=O)N[C@@H](Cc1c[nH]cn1)C(N)=O [compound 163] (Palmitoyl-KPAH-NH2) | ≥ 25 |
| CCCCCCCCCCCCCCCC(=O)N[C@@H](CCCCN)C(=O)N1CCC[C@H]1C(=O)N[C@@H](C)C(=O)N[C@H](Cc1c[nH]cn1)C(N)=O [compound 164] (Palmitoyl-KPA[dH]-NH2) | ≥ 25 |
| CCCCCCCCCCCCCCCC(=O)N[C@@H](CCCCN)C(=O)N1CCC[C@H]1C(=O)N[C@@H](C)C(=O)N[C@@H](CCc1c[nH]cn1)C(N)=O [compound 165] | ≥ 25 |
| CCCCCCCCCCCCCCCC(=O)N[C@@H](CCCCN)C(=O)N[C@@H](C)C(=O)N[C@@H](Cc1cnc[nH]1)C(N)=O [compound 166] (Palmitoyl-Lys-Ala-His-NH2) | ≥ 25 |
| CCCCCCCCCCCCCCCC(=O)N[C@@H](CCCCN)C(=O)N[C@@H](C)C(=O)N[C@@H](C)C(=O)N[C@@H](CCc1c[nH]cn1)C(N)=O [compound 172] | ≥ 25 |
| CCCCCCCCCCCCCCCC(=O)N[C@@H](CCCCN)C(=O)N[C@@H](C)C(=O)N[C@@H](C)C(=O)N[C@H](CCc1c[nH]cn1)C(N)=O [compound 173] | ≥ 25 |
| CCCCCCCCCCCCCCCC(=O)N[C@@H](CCCCN)C(=O)N[C@@H](C)C(=O)N[C@@H](C)C(=O)N[C@@H](CCCCN)C(=O)N(C)OC [compound 177] (Palmitoyl-KAAK-{N(Me)OMe}) | ≥ 25 |
